Measured values published in patent publication US11453697B1, “Cyclic di-nucleotide compounds as sting agonists” (Merck Sharp & Dohme Corp., priority 2015, dated 2022).
Like-named read-outs stand apart in the source and are kept apart here.

Assays:
[1] = tested on: IFN-β secretion in THP1 cells; assay: IFN-β secretion in THP1 cell culture (5 h); assay type: cell-based, human
Method in brief: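 THP1 cells incubated with compound for 5 h at 37 °C, 5% CO2, and secreted IFN-β in supernatant quantified by AlphaLISA. Percent effect normalised to 30 uM cGAMP positive control and 0.3% DMSO. EC50 from 4-parameter fit.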

full-length HAQ STING = full-length HAQ STING (Homo sapiens (Human), UniProt Q86WV6, G230A/H232R/R293Q/R71H); assay: 3H-cGAMP filtration binding assay (HAQ STING); settings: competition with tritiated cGAMP, HAQ STING membrane; read-out: EC50 (nM), 3H-cGAMP filtration binding assay for HAQ STING
Chain of full-length HAQ STING (Q86WV6 other isoform, or with tags, fused parts or gaps, stated change not applied): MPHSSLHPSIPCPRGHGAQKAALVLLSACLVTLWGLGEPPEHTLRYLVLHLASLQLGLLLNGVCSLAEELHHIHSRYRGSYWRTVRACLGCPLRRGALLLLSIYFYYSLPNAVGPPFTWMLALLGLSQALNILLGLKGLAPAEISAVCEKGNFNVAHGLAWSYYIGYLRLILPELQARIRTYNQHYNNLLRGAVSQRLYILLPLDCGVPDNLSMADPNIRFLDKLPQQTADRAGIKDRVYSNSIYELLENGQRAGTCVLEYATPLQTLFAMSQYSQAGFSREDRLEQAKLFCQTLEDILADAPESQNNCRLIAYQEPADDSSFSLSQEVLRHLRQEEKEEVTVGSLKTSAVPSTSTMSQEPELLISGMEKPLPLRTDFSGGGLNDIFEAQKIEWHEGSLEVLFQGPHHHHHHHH
Source text: The ability of compounds to bind STING is quantified by the ability to compete with tritiated cGAMP ligand for human STING receptor membrane using a radioactive filter-binding assay. The binding assay employs STING receptor obtained from Hi-Five cell membranes overexpressing full-length HAQ STING prepared in-house and tritiated cGAMP ligand also purified in-house.
The ability of compounds to bind STING is quantified by their ability to compete with tritiated cGAMP ligand for human STING receptor membrane using a radioactive filter-binding assay.
The basic HAQ STING filtration assay protocol is as follows:
Compound and membrane then preincubated for 60 min at RT to allow compound binding to equilibrate. Following equilibration, 8 nM of [^3H] c-GAMP ligand was prepared by diluting into assay buffer, and 50 uL of this working stock was then manually added to each well of the assay plate. […] The filter plates were then dried at 55° C. for 30 min using a pressurized VWR oven before 30 uL of Ultima GoldF scintillate was added to each well. Tritium levels for each reaction well were then measured using a PerkinElmer TopCount plate reader.
After normalization to controls, the percent activity for each compound concentration was calculated by measuring the amount of remaining radioactivity. The plot of percent activity versus the log of compound concentration was fit with a 4-parameter dose response equation to calculate EC50 values.

[2] = IFN-β secretion in THP1 cell culture, 5 h, compound at 30 μM, percent activation relative to 2′3′-cGAMP

SMILES	% Effect at 30 μM relative to 2′3′-cGAMP [1, 2] [%]	EC50 (full-length HAQ STING) [nM]	% Effect at 30 μM relative to 2′3′-cGAMP [1] [%]
Nc1ncnc2c1ccn2[C@@H]1O[C@@H]2COP(=O)(O)O[C@@H]3[C@H](O)[C@@H](COP(=O)(O)O[C@H]2[C@H]1O)O[C@H]3n1cnc2c(=O)[nH]cnc21 [Example 35, 9-[(5R,7R,8R,12aR,14R,15R,15aS,16R)-14-(4-amino-7H-pyrrolo[2,3-d]pyrimidin-7-yl)-2,10,15,16-tetrahydroxy-2,10-dioxidooctahydro-12H-5,8-methanofuro[3,2-l][1,3,6,9,11,2,10]pentaoxadiphosphacyclotetradecin-7-yl]-1,9-dihydro-6H-purin-6-one]	51	7.9	
NC[C@H]1[C@H]2OP(=O)(O)OC[C@H]3O[C@@H](n4cnc5c(N)ncnc54)[C@H](O)[C@@H]3OP(=O)(O)OC[C@H]1O[C@H]2n1cnc2c(=O)[nH]c(N)nc21 [Example 36, 2-amino-9-[(5S,7R,8R,12aR,14R,15R,15aS,16R)-16-(aminomethyl)-14-(6-amino-9H-purin-9-yl)-2,10,15-trihydroxy-2,10-dioxidooctahydro-12H-5,8-methanofuro[3,2-l][1,3,6,9,11,2,10]pentaoxadiphosphacyclotetradecin-7-yl]-1,9-dihydro-6H-purin-6-one]	120	21.5	
Nc1nc2c(ccn2[C@@H]2O[C@@H]3COP(=O)(O)O[C@H]4[C@@H](O)[C@H](n5ccc6c(N)ncnc65)O[C@@H]4COP(=O)(O)O[C@@H]2[C@@H]3O)c(=O)[nH]1 [Example 37, 2-amino-7-[(5R,7R,8R,12aR,14R,15R,15aS,16R)-14-(4-amino-7H-pyrrolo[2,3-d]pyrimidin-7-yl)-2,10,15,16-tetrahydroxy-2,10-dioxidooctahydro-12H-5,8-methanofuro[3,2-l][1,3,6,9,11,2,10]pentaoxadiphosphacyclotetradecin-7-yl]-3,7-dihydro-4H-pyrrolo[2,3-d]pyrimidin-4-one]	57	620	
Nc1nc2c(ncn2[C@@H]2O[C@@H]3COP(=O)(O)O[C@H]4[C@@H](O)[C@H](c5cnc6c(N)ncnn56)O[C@@H]4COP(=O)(O)O[C@@H]2[C@@H]3O)c(=O)[nH]1 [Example 40, 2-amino-9-[(5R,7R,8R,12aR,14S,15S,15aS,16R)-14-(4-aminoimidazo[2,1-f][1,2,4]triazin-7-yl)-2,10,15,16-tetrahydroxy-2,10-dioxidooctahydro-12H-5,8-methanofuro[3,2-l][1,3,6,9,11,2,10]pentaoxadiphosphacyclotetradecin-7-yl]-1,9-dihydro-6H-purin-6-one]	77	3.2	
Nc1nc2c(ncn2[C@@H]2O[C@@H]3COP(=O)(O)O[C@H]4[C@@H](O)[C@H](c5n[nH]c6c(N)ncnc56)O[C@@H]4COP(=O)(O)O[C@@H]2[C@@H]3O)c(=O)[nH]1 [Example 49, 2-amino-9-[(5R,7R,8R,12aR,14S,15S,15aS,16R)-14-(7-amino-1H-pyrazolo[4,3-d]pyrimidin-3-yl)-2,10,15,16-tetrahydroxy-2,10-dioxidooctahydro-12H-5,8-methanofuro[3,2-l][1,3,6,9,11,2,10]pentaoxadiphosphacyclotetradecin-7-yl]-1,9-dihydro-6H-purin-6-one]	74	30	
Nc1ncnc2c1ncn2[C@@H]1O[C@@H]2COP(=O)(O)O[C@@H]3C[C@@H](COP(=O)(O)O[C@H]2[C@H]1O)O[C@H]3n1cnc2c(=O)[nH]cnc21 [Example 50, 9-[(5S,7R,8R,12aR,14R,15R,15aS)-14-(6-amino-9H-purin-9-yl)-2,10,15-trihydroxy-2,10-dioxidooctahydro-12H-5,8-methanofuro[3,2-l][1,3,6,9,11,2,10]pentaoxadiphosphacyclotetradecin-7-yl]-1,9-dihydro-6H-purin-6-one]	85	2.7	
Nc1nc2c(ncn2[C@@H]2O[C@@H]3COP(=O)(O)O[C@H]4[C@@H](O)[C@H](n5cnc6c(N)ncnc65)O[C@@H]4COP(=O)(O)O[C@@H]2[C@@H]3O)c(=S)[nH]1 [Example 53, 2-amino-9-[(5R,7R,8R,12aR,14R,15R,15aS,16R)-14-(6-amino-9H-purin-9-yl)-2,10,15,16-tetrahydroxy-2,10-dioxidooctahydro-12H-5,8-methanofuro[3,2-l][1,3,6,9,11,2,10]pentaoxadiphosphacyclotetradecin-7-yl]-1,9-dihydro-6H-purine-6-thione]	127	1.7	
Nc1nc2c(ncn2[C@@H]2O[C@@H]3COP(=O)(O)O[C@H]4[C@@H](O)[C@H](c5cnn6c(N)ncnc56)O[C@@H]4COP(=O)(O)O[C@@H]2[C@@H]3O)c(=O)[nH]1 [Example 54, 2-amino-9-[(5R,7R,8R,12aR,14S,15S,15aS,16R)-14-(4-aminopyrazolo[1,5-a][1,3,5]triazin-8-yl)-2,10,15,16-tetrahydroxy-2,10-dioxidooctahydro-12H-5,8-methanofuro[3,2-l][1,3,6,9,11,2,10]pentaoxadiphosphacyclotetradecin-7-yl]-1,9-dihydro-6H-purin-6-one]		< 1	83
Nc1nc2c(ncn2[C@@H]2O[C@@H]3COP(=O)(O)O[C@H]4[C@@H](O)[C@H](n5nnc6c(N)ncnc65)O[C@@H]4COP(=O)(O)O[C@@H]2[C@@H]3O)c(=O)[nH]1 [Example 55, 2-amino-9-[(5R,7R,8R,12aR,14R,15R,15aS,16R)-14-(7-amino-3H-[1,2,3]triazolo[4,5-d]pyrimidin-3-yl)-2,10,15,16-tetrahydroxy-2,10-dioxidooctahydro-12H-5,8-methanofuro[3,2-l][1,3,6,9,11,2,10]pentaoxadiphosphacyclotetradecin-7-yl]-1,9-dihydro-6H-purin-6-one]	83	55.3	
CCc1ncnc2c1ncn2[C@@H]1O[C@@H]2COP(=O)(O)O[C@@H]3[C@H](O)[C@@H](COP(=O)(O)O[C@H]2[C@H]1O)O[C@H]3n1cnc2c(=O)[nH]c(N)nc21 [Example 56, 2-amino-9-[(5R,7R,8R,12aR,14R,15R,15aS,16R)-14-(6-ethyl-9H-purin-9-yl)-2,10,15,16-tetrahydroxy-2,10-dioxidooctahydro-12H-5,8-methanofuro[3,2-l][1,3,6,9,11,2,10]pentaoxadiphosphacyclotetradecin-7-yl]-1,9-dihydro-6H-purin-6-one]	64	89.4	
COCCc1ncnc2c1ncn2[C@@H]1O[C@@H]2COP(=O)(O)O[C@@H]3[C@H](O)[C@@H](COP(=O)(O)O[C@H]2[C@H]1O)O[C@H]3n1cnc2c(=O)[nH]c(N)nc21 [Example 57, 2-amino-9-{(5R,7R,8R,12aR,14R,15R,15aS,16R)-2,10,15,16-tetrahydroxy-14-[6-(2-methoxyethyl)-9H-purin-9-yl]-2,10-dioxidooctahydro-12H-5,8-methanofuro[3,2-l][1,3,6,9,11,2,10]pentaoxadiphosphacyclotetradecin-7-yl}-1,9-dihydro-6H-purin-6-one]	7	438	
Nc1ncnc2c1ncn2[C@@H]1O[C@@H]2COP(=O)(O)O[C@@H]3[C@H](O)[C@@H](COP(=O)(O)O[C@H]2[C@H]1O)O[C@H]3n1cnc2c(=O)[nH]ccc21 [Example 58, 1-[(5R,7R,8R,12aR,14R,15R,15aS,16R)-14-(6-amino-9H-purin-9-yl)-2,10,15,16-tetrahydroxy-2,10-dioxidooctahydro-12H-5,8-methanofuro[3,2-l][1,3,6,9,11,2,10]pentaoxadiphosphacyclotetradecin-7-yl]-1,5-dihydro-4H-imidazo[4,5-c]pyridin-4-one]	92	3.1	
Nc1ncc2ncn([C@@H]3O[C@@H]4COP(=O)(O)O[C@@H]5[C@H](O)[C@@H](COP(=O)(O)O[C@H]4[C@H]3O)O[C@H]5n3cnc4c(=O)[nH]c(N)nc43)c2n1 [Example 59, 2-amino-9-[(5R,7R,8R,12aR,14R,15R,15aS,16R)-14-(2-amino-9H-purin-9-yl)-2,10,15,16-tetrahydroxy-2,10-dioxidooctahydro-12H-5,8-methanofuro[3,2-l][1,3,6,9,11,2,10]pentaoxadiphosphacyclotetradecin-7-yl]-1,9-dihydro-6H-purin-6-one]	76	11.8	
N#Cc1cn([C@@H]2O[C@@H]3COP(=O)(O)O[C@@H]4[C@H](O)[C@@H](COP(=O)(O)O[C@H]3[C@H]2O)O[C@H]4n2cnc3c(=O)[nH]c(N)nc32)c2ncnc(N)c12 [Example 60, 4-amino-7-[(5R,7R,8R,12aR,14R,15R,15aS,16R)-7-(2-amino-6-oxo-1,6-dihydro-9H-purin-9-yl)-2,10,15,16-tetrahydroxy-2,10-dioxidooctahydro-12H-5,8-methanofuro[3,2-l][1,3,6,9,11,2,10]pentaoxadiphosphacyclotetradecin-14-yl]-7H-pyrrolo[2,3-d]pyrimidine-5-carbonitrile]	12	42.5	
